Patent publication US10912759B2 (priority 2018, dated 2021)

Columns and labels:
[1] = test system: S. aureus; assay: MIC and MBC of topical gel vs. Mupirocin; type: cell-based, Staphylococcus aureus; settings: 0-10% w/v, overnight at 37° C., aliquots plated, lack of any growth
Protocol: MIC was determined by visually observing where turbid growth stopped, MBC was determined by taking aliquots from each tube, plating onto media, and observation for lack of any growth.
Mupirocin is the standard ointment for treatment of S. aureus topical infections. […] MIC was determined by visually observing where turbid growth stopped, MBC was determined by taking aliquots from each tube, plating onto media, and observation for lack of any growth.

[2] = test system: SprX; type: cell-based, S. aureus; settings: 1% (w/v), one hour, RNA level by RT-PCR
Excerpt: (§1) FIG. 10 is a graph showing the effect of the topical gel on S. aureus gene expression compared to mupirocin treatment. Results are expressed as percent change in intensity values.
(§2) FIG. 11 is a graph showing the effect of the topical gel on S. aureus gene expression compared to control and mupirocin treatment. Results are expressed as gene expression intensity ratios.
(§3) In an effort to elucidate the mechanism of action of the topical gel on S. aureus as well as to examine any commonalities or differences in Staphylococcal response to treatment, transcriptional response was evaluated. S. aureus was either 1) grown alone as a control, 2) grown in 1% (w/v) topical gel, or 3) grown in 1% (w/v) Mupirocin for one hour. Cells were harvested and total RNA was extracted. Reverse Transcriptase polymerase chain reaction using gene specific primers was utilized to determine the RNA levels for the specific genes RecA, SprX, and PsrA. RecA is a protein specific for SOS response in Staphylococcus indicative of a need to repair DNA damage. SprX is a small RNA associated with Staphylococcus antibiotic resistance. PsrA regulates expression of proteins in the cell wall of Staphylococcus which are both essential for bacterial survival and antibiotic resistance.

[3] = test system: PsrA; assay: S. aureus gene expression by RT-PCR; type: cell-based; settings: 1% (w/v), one hour, RNA level by RT-PCR
Excerpt: as §1, §2, §3

C/C(=C\C(=O)OCCCCCCCCC(=O)O)C[C@@H]1OC[C@H](C[C@@H]2O[C@H]2[C@@H](C)[C@H](C)O)[C@@H](O)[C@H]1O [Mupirocin]
MBC values compared to topical gel [1]: lower MBC values | reduction of expression of SprX [2]: 78% | reduction of expression of PsrA [3]: 56%
